These results are taken from patent publication US5084481A, “Method of treating inflammatory diseases with pharmaceutical composition containing dihydrolipoic acid as active substance” (Asta Pharma Aktiengesellschaft, priority 1989, dated 1992).

Data set [1] in a line: Acetic acid writhing pain test in mouse. The class given is in vivo. The conditions noted are these: for ED50: read-out: analgesically effective ED50, acetic acid writhing test. An excerpt:
Acetic acid test (Writhing test) in the mouse
In the acetic acid test after KOSTER et al. (Fed. proc., Vol. 18, page 412 (1959)) the pain irritation is triggered by an intraperitoneal injection of 1% acetic acid. The pain reaction is expressed in the form of a characteristic stretching of the animals ("writhing syndrome") which continues at irregular intervals for some time after the acetic acid injection. The dose-related inhibition of the frequency of writhing movements as compared to an untreated control group is expressed as an analgesic effect in percent. Evaluation is effected by determining the ED50 (linear regression method). The ED50 is the dose in mg/kg which achieves a 50% inhibition in the writhing syndrome.
The characteristic feature of the acetic acid test is that it not only determines the effect of strong, centrally acting analgesics, but also that of predominantly peripherally acting analgesic, antipyretic and anti-inflammatory agents such as phenylbutazone, indomethacin, etc.

Data set [2] in a line: Randall Selitto inflammation pain test in rat. The class given is in vivo. The following applies: for ED50: 0.5 h, pain threshold 30 minutes after substance, read-out: analgesically effective ED50, Randall Selitto test. As to the method:
The following is a brief description of the pharmacological test methods specially mentioned herein: Randall Selitto Test (inflammatory pain in the rat):
On the basis of the method after RANDALL and SELITTO (L.O. Randall and J. Selitto, Arch. int. Pharmacodyn., Vol. 111, pages 409-418 (1957)) 0.1 ml of a 20% suspension of brewer's yeast (in demineralized water) is injected subplantar into the right rear paw of rats. After 21/2 hours the test substances are given and 30 minutes later the pain threshold is measured as a pressure (in grams) on the inflamed paw using an algesimeter (equipment by Ugo BASILE, Milan/Italy). The criterion is the defense reaction of the animals in pulling the paw away and/or escaping from the technician's grip. The effect of the substance is determined by the increase in the pain threshold compared to an untreated control group. The course of the experiment differs from the original method in that the substances are only administered 21/2 hours after appearance of the edema and not given simultaneously therewith. This is done in order to prevent the development of the edema being inhibited by any possible anti-inflammatory action and the analgesia being masked or feigned.
The ED50 is determined using the linear regression method. The ED50 is then the dose in mg/kg for which a 50% analgesic effect is calculated.

Data set [3] can be described thus: Carragheen-induced edema test in the rat (anti-inflammatory effect). The following applies: for ED50: read-out: anti-inflammatorally effective ED50, carragheen edema. The class given is in vivo. The procedure: Carragheen-edema test for anti-inflammatory effect
The examination is carried out in carragheen-induced edema of rat paw on the basis of the method of MoRSDORF and colleagues (Arch. int. Pharmacodyn. 192, 111-127 (1971)). The anti-inflammatory effect is for example quoted as edema inhibition in percent as compared to the untreated control group. […]. The substance is given orally or intraperitoneally […]. The ED50 is the dose in mg/kg at which there is a 50% inhibition of the paw edema.

A short description of data set [4]: PAF-acether edema in the rat. The class given is in vivo. The following applies: for % effect, PAF-acether edema: rat, given 0.5 hours before triggering, edema measured 1 hour thereafter. The procedure: (Platelet Aggregating Factor)-acether-edema in the rat
The principle of this method is to provoke a locally limited edema or inflammation in the rat paw by means of the subplantar injection of 2 μg of PAF acether per animal. The investigations were carried out on the basis of the method of SWINGLE and REITER (Agents and actions, 18, 358-365, (1986)). The animals received the test substances 0.5 hours before triggering of the edema. The edema was measured 1 hour thereafter. The ED50 was calculated using the linear regression method.

The nature of data set [5]: Acute toxicity in the mouse (LD50, Litchfield and Wilcoxon). The conditions noted are these: in vivo, oral application. As to the method: The acute toxicity of the invention in the mouse (expressed as the LD50 mg/kg; method of LITCHFIELD and WILCOXON, J. Pharmacol. Exp. Ther. 95:99, (1949)) is for example above 200 mg/kg in the case of oral application.
The nature of data set [6]: Cytoprotective effect in animal trials. The conditions noted are these: in vivo.
A short description of data set [7]: Comparison of the effect with alpha-lipoic acid and S-adenosyl-L-methionine (animal experiments). The class given is in vivo.
Data set [8] in a line: Further investigatory models (MgSO4 writhing, adjuvans arthritis, mouse ear edema, arthrosis, intestinal ulceration, colitis, ethanol ulcer, UV-B radiation in healthy subjects). The conditions noted are these: models listed, stated collectively. The class given is in vivo, rat, chicken. An excerpt: MgSO4 writhing test in the mouse after GYIRES et al. (Arch. int. pharmacodyn. therap. 267, 131-140, 1984)
Adjuvans arthritis in the rat after NEWBOULD (Brit. J. Pharmacol. 21, 127-136, 1963)
TPA or arachidonic acid-induced mouse ear edema after YOUNG et al. (J. Invest. Dermatol. 80, 48-52, 1983)
Na-mono-iodine acetate-induced arthrosis in rats or chickens after KALBHEN, in: Arthrosis deformans, Eular-Verlag, Basel/Switzerland, 1982
TPA-induced arthrosis in rats after WEISCHER (Agents and Actions 23, 1/2, 1988)
Intestinal ulceration in rats after DEL SOLDATO (Agents and Actions 16, 393-396, 1985)
Colitis model in the rat after WEISCHER (Agents and Actions, 1988)
Ethanol ulcer model in the rat (determination of, for example, a cytoprotective effect)
The effect of topical DL-dihydrolipoic acid in the complex of symptoms induced by UV-B radiation in healthy subjects
A general note: Writhing tests count abdominal constrictions after an irritant is injected.

For data set [9] the following is noted: rats and mice; solutions in water or physiological sodium chloride containing venom and substance; cited from earlier work.

Entries after “also recorded” stand apart in the source; their conditions may differ.

As a reminder, the ED50 is the dose that gives a 50% effect, or the effect in half of the subjects. Usually LD50 stands for the dose expected to kill half of the subjects tested. A low value points to a more toxic substance. In the case of `O=C(O)CCCCC(S)CCS` (racemic) [dihydrolipoic acid, 6,8-dimercapto-octanoic acid], the “analgesic effect (in words)” value in data set [1] (acetic acid writhing pain test in mouse) and in [2] (Randall Selitto inflammation pain test in rat) was “good analgesic effect” in each case. For the same molecule, the ED50 in [1] (ip, intraperitoneally, mouse) is 4.6 mg/kg; in data set [1] (po, per os, mouse), 26.8 mg/kg; in [2] (ip, intraperitoneally, rat), 0.14 mg/kg; in data set [2] (po, per os, rat), 16.2 mg/kg; in [3] (ip, intraperitoneally, rat) it was 7.7 mg/kg; in data set [3] (po, per os, rat), 26 mg/kg. In addition, the “analgesic effect superior to that of alpha-lipoic acid by a factor” value in data set [1] (peroral application, acetic acid writhing, mouse) is recorded as “at least 1.9”; in data set [2] (peroral application, Randall Selitto, rat), no less than 2.8. Also, the minimal effective dose in data set [2] (po, per os, rat, read-out: minimum dose to produce an analgesic effect in the Randall Selitto pain test) was determined as 5 mg/kg; in [3] (po, per os, rat, read-out: minimum dose to produce an anti-inflammatory effect in the carragheen-induced edema test), 5 mg/kg. The “anti-inflammatory activity (in words)” value in data set [3] (carragheen-induced edema in the rat) is reported as “good anti-inflammatory activity”. The “anti-inflammatory activity superior to that of alpha-lipoic acid by a factor” value in [3] (peroral application, carragheen edema, rat) is listed as “at least 1.9”. Also, the results for the “% effect, PAF-acether edema” value in data set [4] (25 mg/kg intraperitoneally), in [4] (50 mg/kg intraperitoneally) and in data set [4] (200 mg/kg intraperitoneally) were 14%, 63% and 73%, respectively. In addition, the “inhibition of vasopermeability (in words)” value in data set [4] (PAF edema in the rat) is given as “good inhibition of vasopermeability”. For the same molecule, in data set [5], the LD50 was greater than 200 mg/kg. The “cytoprotective effect (in words)” value in [6] is listed as “good cytoprotective effect; also recorded: specific cytoprotective effect”. Also, in data set [7] (animal experiments), the “time after application at which the full effect appears” value was 0.5 h. Moreover, in [7] (in vivo), the “effect stronger than that of alpha-lipoic acid by a factor” value is on record as 2-3. For the same molecule, in data set [8], the “analgesic, anti-inflammatory, anti-arthrotic and cytoprotective effect in further models (in words)” value is “good analgesic, anti-inflammatory, anti-arthrotic and cytoprotective effect”. For the same molecule, in data set [9], the “inactivation of snake venom (in words)” value is “inactivates snake venom”.
